Key:
[1] = target: T1, Dual serine/threonine and tyrosine protein kinase (Homo sapiens) (UniProt Q6XUX3); experiment: Inhibition of human RIPK5 using myelin basic protein as substrate at 1 uM in presence of 32P-ATP by Hotspot assay relative to control; values are per cent of control
T1 sequence (whole entry): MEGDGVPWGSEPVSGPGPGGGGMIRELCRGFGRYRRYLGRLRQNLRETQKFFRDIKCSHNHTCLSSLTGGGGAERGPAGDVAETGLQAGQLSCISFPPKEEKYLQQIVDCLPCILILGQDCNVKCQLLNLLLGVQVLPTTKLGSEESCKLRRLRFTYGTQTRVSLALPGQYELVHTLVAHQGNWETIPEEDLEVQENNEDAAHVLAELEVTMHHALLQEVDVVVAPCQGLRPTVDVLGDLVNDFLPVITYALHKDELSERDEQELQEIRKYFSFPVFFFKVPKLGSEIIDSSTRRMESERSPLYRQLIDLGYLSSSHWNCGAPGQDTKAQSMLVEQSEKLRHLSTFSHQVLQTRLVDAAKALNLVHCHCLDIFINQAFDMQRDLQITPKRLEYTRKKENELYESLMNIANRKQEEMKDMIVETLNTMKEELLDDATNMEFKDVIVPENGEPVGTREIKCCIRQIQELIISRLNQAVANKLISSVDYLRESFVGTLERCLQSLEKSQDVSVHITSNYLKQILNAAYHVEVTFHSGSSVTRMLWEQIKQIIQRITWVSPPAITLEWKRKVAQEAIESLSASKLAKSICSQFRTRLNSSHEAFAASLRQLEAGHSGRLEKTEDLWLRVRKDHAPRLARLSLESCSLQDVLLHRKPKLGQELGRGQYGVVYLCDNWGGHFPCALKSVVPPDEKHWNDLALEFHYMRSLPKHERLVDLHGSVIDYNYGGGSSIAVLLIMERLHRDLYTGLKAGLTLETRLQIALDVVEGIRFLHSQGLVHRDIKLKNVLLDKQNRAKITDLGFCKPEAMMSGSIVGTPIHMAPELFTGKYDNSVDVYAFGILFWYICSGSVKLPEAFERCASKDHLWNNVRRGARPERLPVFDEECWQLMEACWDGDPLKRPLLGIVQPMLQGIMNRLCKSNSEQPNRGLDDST

[2] = target: Tyrosine-protein kinase Fer (Homo sapiens) (UniProt P16591); experiment: Inhibition of human FER using poly[Glu:Tyr] (4:1) as substrate at 1 uM in presence of 32P-ATP by Hotspot assay relative to control; values are per cent of control
Homo sapiens = species on record: Homo sapiens; experiment: Inhibition of human CDK7/cyclin H using myelin basic protein as substrate at 1 uM in presence of 32P-ATP by Hotspot assay relative to control; values are per cent of control
[3] = target: T2, cGMP-dependent protein kinase 2 (Homo sapiens) (UniProt Q13237); experiment: Inhibition of human PKG2/PRKG2 using LRRASLG as substrate at 1 uM in presence of 32P-ATP by Hotspot assay relative to control; values are per cent of control
T2 sequence (whole entry): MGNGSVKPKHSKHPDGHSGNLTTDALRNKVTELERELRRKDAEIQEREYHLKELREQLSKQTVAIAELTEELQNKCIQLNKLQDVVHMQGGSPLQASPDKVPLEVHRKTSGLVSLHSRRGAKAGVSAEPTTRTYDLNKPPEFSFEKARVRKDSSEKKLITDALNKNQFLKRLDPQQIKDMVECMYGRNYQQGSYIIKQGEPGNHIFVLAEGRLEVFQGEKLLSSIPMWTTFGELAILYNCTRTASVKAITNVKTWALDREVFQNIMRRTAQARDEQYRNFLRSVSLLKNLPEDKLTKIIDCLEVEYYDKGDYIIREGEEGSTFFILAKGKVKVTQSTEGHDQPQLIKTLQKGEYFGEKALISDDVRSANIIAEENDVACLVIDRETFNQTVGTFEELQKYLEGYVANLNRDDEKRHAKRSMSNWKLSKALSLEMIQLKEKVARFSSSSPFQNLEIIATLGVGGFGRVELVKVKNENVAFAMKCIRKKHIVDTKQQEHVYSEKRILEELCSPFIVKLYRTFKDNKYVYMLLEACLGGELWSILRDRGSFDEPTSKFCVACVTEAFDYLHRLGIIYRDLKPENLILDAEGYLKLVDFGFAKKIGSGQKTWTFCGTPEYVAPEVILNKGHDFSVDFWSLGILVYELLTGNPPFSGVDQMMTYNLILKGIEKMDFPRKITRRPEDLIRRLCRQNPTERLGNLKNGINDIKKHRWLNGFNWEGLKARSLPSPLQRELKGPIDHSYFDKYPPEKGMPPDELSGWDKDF

[4] = target: T3, Protein kinase C zeta type (Homo sapiens) (UniProt Q05513); experiment: Inhibition of human PKCzeta using ERMRPRKRQGSVRRRV as substrate at 1 uM in presence of 32P-ATP by Hotspot assay relative to control; values are per cent of control
T3 sequence (whole entry): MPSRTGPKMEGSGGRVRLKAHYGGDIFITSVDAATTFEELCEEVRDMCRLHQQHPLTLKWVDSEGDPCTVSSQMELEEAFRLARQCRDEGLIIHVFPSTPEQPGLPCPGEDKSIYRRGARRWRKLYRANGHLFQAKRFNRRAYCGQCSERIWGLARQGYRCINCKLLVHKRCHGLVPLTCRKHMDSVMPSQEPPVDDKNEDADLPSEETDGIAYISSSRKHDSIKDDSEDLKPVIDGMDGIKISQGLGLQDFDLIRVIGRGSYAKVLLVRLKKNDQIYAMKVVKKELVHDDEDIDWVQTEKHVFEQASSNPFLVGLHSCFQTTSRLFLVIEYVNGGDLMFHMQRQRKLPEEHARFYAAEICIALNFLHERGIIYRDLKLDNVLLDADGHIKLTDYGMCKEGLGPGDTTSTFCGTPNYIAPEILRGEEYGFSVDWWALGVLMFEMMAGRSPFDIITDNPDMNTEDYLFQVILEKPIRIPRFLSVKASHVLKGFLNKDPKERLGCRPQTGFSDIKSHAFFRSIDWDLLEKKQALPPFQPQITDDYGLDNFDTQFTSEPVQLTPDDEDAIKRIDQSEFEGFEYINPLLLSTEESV

[5] = target: Ephrin type-A receptor 5 (Homo sapiens) (UniProt P54756); experiment: Inhibition of human EPHA5 using poly[Glu:Tyr] (4:1) as substrate at 1 uM in presence of 32P-ATP by Hotspot assay relative to control; values are per cent of control
[6] = target: Protein kinase C beta type (Homo sapiens) (UniProt P05771); experiment: Inhibition of human PKCb1 using ERMRPRKRQGSVRRRV as substrate at 1 uM in presence of 32P-ATP by Hotspot assay relative to control; values are per cent of control
Protein kinase C beta type (Homo sapiens), sequence (P05771 2-671 limits assumed): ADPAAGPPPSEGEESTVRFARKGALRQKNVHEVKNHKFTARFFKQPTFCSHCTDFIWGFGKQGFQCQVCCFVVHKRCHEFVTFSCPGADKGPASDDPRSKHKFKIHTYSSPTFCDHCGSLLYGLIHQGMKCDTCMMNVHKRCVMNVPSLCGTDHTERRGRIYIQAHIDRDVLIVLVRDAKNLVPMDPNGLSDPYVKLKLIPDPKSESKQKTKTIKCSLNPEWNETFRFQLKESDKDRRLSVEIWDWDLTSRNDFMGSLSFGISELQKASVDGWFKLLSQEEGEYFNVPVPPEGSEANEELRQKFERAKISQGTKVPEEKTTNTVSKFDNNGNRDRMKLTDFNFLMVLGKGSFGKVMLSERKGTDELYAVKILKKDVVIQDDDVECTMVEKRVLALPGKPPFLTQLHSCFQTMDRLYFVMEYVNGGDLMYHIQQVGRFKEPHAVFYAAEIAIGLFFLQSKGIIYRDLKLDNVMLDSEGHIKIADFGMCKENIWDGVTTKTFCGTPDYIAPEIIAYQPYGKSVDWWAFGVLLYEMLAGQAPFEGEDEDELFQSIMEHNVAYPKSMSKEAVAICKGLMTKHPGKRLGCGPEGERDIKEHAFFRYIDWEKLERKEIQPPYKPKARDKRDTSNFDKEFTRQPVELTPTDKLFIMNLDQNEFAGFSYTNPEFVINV

Tyrosine-protein kinase Fer (Homo sapiens), sequence (P16591 whole entry, looked up): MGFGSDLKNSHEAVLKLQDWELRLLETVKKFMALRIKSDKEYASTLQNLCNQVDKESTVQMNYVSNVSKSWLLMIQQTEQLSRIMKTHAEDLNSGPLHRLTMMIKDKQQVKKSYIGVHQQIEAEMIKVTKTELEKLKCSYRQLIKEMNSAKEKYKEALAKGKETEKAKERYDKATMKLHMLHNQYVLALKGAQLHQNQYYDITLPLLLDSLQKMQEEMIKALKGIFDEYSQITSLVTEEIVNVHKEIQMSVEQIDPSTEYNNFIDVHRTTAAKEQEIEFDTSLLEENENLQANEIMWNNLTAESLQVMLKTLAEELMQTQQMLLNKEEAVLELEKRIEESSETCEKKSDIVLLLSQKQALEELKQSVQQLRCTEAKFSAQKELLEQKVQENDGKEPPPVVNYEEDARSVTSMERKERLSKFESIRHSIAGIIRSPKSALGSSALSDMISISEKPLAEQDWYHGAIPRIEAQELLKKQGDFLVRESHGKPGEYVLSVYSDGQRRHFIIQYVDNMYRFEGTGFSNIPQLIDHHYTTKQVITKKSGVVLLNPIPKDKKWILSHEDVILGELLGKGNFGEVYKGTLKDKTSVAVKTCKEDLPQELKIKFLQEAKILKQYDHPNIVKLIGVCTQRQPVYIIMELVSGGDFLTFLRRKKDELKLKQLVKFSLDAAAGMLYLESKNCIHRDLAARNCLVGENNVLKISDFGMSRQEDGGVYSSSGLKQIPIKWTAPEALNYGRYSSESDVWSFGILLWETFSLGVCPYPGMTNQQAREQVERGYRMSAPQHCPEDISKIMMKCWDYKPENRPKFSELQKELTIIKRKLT
Ephrin type-A receptor 5 (Homo sapiens), sequence (P54756 whole entry): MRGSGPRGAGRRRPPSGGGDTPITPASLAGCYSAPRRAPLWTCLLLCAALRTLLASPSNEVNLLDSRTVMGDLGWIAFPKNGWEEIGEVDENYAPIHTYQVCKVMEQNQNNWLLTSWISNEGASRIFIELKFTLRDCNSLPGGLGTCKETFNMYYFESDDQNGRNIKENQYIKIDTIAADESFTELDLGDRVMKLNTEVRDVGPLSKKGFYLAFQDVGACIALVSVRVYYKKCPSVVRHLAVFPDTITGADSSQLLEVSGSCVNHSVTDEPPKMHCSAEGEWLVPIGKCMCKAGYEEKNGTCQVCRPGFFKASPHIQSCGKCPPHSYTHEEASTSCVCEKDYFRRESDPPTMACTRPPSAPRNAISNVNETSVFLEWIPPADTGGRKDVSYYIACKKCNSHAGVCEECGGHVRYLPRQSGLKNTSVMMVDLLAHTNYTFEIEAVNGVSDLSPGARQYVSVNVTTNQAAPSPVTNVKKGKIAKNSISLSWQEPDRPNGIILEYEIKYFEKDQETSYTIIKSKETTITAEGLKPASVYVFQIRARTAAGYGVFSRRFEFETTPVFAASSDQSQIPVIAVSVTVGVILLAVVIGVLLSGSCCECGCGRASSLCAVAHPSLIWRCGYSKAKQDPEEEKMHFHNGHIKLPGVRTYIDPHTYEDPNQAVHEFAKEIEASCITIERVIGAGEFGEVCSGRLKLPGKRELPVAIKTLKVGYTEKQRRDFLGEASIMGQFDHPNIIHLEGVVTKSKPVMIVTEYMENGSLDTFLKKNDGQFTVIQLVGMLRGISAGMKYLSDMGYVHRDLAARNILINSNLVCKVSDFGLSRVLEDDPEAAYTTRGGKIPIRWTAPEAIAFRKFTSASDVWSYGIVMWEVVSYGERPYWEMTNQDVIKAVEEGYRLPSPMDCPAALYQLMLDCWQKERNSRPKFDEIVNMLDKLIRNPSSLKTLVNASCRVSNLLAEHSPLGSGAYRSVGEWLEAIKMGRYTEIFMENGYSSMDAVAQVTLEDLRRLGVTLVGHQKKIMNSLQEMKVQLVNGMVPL

SMILES | residual activity [1] [%] | residual activity [2] [%] | residual activity (Homo sapiens) [%] | residual activity [3] [%] | residual activity [4] [%] | residual activity [5] [%] | residual activity [6] [%]
CC(C)S(=O)(=O)c1ccc2nccc(Nc3ccc4scnc4c3)c2c1 | 106 | 98.4 | 97.7 | 94.6 | 96.3 | 70.6 | 96.3
Cc1cc(-c2cnc(N)c3c(-c4ccc5scnc5c4)csc23)n(C)n1 | 101 | 87.9 | 94.2 | 70.1 | 101 | 53.4 | 96.1
CNC(=O)c1ccc2c(c1)ncn2-c1ccc(CC(=O)OC(C)(C)C)cc1 | 95.6 | 91.6 | 96.2 | 96.7 | 96.4 | 96.7 | 95
